Source: patent publication US5424325A, “Aminoketone derivatives” (Mitsubishi Kasei Corporation, priority 1992, dated 1995)

Columns and labels:
[1] = molecular target: T1, m-calpain (Rattus norvegicus, UniProt Q07009); experiment: Measurement of inhibitory activity against thiol protease (m-calpain purified from rat brain); type: biochemical; details: m-calpain purified from a brain of rat
T1 construct: m-calpain was purified from a brain of rat; from tissue; host or cells: rat brain
T1 sequence (Q07009 20-700 limits assumed): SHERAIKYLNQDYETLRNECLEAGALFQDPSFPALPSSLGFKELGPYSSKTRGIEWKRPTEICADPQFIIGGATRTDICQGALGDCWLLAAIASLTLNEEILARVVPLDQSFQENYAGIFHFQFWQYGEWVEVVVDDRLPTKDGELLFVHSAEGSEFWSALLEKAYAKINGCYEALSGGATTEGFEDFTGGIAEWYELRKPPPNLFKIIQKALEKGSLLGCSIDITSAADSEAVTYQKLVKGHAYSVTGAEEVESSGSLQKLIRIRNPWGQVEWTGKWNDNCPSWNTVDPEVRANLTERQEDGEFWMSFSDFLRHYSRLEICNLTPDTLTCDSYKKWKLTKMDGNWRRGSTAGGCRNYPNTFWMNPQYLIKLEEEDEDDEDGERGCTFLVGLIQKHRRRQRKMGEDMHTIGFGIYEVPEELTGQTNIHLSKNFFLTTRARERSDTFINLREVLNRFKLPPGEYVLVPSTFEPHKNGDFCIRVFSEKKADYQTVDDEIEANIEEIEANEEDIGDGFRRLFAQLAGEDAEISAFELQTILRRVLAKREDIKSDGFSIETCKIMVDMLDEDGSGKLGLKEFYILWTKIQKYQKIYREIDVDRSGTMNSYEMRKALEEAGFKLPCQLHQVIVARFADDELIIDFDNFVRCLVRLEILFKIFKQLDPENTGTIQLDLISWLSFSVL
T1 sequence (Q64537 1-270 partner): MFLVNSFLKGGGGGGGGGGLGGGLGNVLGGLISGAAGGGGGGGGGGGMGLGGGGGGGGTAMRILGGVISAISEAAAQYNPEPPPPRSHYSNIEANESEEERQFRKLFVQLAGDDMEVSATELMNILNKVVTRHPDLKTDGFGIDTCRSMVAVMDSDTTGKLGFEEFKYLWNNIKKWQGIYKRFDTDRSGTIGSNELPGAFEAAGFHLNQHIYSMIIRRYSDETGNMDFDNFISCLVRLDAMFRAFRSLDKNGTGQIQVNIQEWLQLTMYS
Protocol: Measurement of Inhibitory Activity against Thiol Protease
Through the known method disclosed in Journal of Biological Chemistry, vol. 259, page 3210, 1984, m-calpain was purified from a brain of rat. The inhibitory activity against it was measured and determined according to the method disclosed in Journal of Biological Chemistry, vol. 259, page 12489, 1984.

[2] = test system: microtubule-associated protein; details: after the brain ischemia; cited from earlier work
[3] = test system: brain trauma models of rat; details: cited from earlier work

| IC50 [1] | SMILES | other results |
| --- | --- | --- |
| 12.2 µM | CCCC[C@H](NC(=O)COc1ccccc1)C(=O)CSCc1ccsc1 [17 (No. 86), (S)-3-phenoxyacetylamino-1-(3-thienylmethylthio)-2-heptanone] | – |
| 13 µM | CCCC[C@H](NC(=O)COc1cccc(OC)c1)C(=O)CSCc1ccsc1 [18 (No. 87), (S)-3-(3-methoxyphenoxyacetylamino)-1-(3-thienylmethylthio)-2-heptanone] | – |
| 17 µM | O=C(COc1ccccc1)N[C@@H](Cc1ccccc1)C(=O)CSCc1ccco1 [38 (No. 171), (S)-1-furfurylthio-3-phenoxyacetylamino-4-phenyl-2-butanone] | – |
| 4.5 µM | COc1cccc(OCC(=O)N[C@@H](Cc2ccccc2)C(=O)CSCc2ccsc2)c1 [58 (No. 216), (S)-3-(3-methoxyphenoxyacetylamino)-4-phenyl-1-(3-thienylmethylthio)-2-butanone] | – |
| 14.5 µM | COc1ccc(/C=C/C(=O)N[C@@H](Cc2ccccc2)C(=O)CSCc2ccsc2)c(OC)c1 [60 (No. 219), (S)-3-(2,4-dimethoxycinnamoylamino)-4-phenyl-1-(3-thienylmethylthio)-2-butanone] | – |
| – | CC(C)CCNC(=O)[C@H](CC(C)C)NC(=O)[C@H]1O[C@@H]1C(=O)O [E-64-C] | degradation of microtubule-associated protein [2]: inhibits the degradation of microtubule-associated protein after the brain ischemia |
| – | CC(=O)N[C@@H](CC(C)C)C(=O)N[C@@H](CC(C)C)C(=O)N[C@H](C=O)CCCNC(=N)N [leupeptin] | protection of axon [3]: can protect axon |
